# Read-outs that look alike come from different tables or passages of the source.
# Experiments:
# [1] = target: biotinylated Avi-POLθ[2-894] (Homo sapiens (Human), UniProt O75417); assay: POLθ ATPase assay (ADP-Glo); conditions: POLθ ATPase, ADP-Glo; n=2; read-out: Biochemical ATPase ADPGlo IC50
# DLD1 BRCA2 (−/−) cells = assay: 7-day cell viability assay (CellTiter-Glo), DLD1 BRCA2 (−/−); assay type: cell-based, human; conditions: 7-day CellTiter-Glo, n=2, read-out: Viability IC50 (uM) DLD1 BRCA2 null
# Summary of the method: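 7-day growth assay in DLD1 cells with or without BRCA2; seeding densities chosen to keep log-linear growth. Compound: 10 uM top, 3-fold, 9 points. Endpoint: CTG ATP luminescence at RT.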
# DLD1 WT cells = assay: 7-day cell viability assay (CellTiter-Glo), DLD1 parental (WT); assay type: cell-based, human; conditions: 7-day CellTiter-Glo, n=2
# biotinylated Avi-POLθ[2-894], sequence (O75417 2-894): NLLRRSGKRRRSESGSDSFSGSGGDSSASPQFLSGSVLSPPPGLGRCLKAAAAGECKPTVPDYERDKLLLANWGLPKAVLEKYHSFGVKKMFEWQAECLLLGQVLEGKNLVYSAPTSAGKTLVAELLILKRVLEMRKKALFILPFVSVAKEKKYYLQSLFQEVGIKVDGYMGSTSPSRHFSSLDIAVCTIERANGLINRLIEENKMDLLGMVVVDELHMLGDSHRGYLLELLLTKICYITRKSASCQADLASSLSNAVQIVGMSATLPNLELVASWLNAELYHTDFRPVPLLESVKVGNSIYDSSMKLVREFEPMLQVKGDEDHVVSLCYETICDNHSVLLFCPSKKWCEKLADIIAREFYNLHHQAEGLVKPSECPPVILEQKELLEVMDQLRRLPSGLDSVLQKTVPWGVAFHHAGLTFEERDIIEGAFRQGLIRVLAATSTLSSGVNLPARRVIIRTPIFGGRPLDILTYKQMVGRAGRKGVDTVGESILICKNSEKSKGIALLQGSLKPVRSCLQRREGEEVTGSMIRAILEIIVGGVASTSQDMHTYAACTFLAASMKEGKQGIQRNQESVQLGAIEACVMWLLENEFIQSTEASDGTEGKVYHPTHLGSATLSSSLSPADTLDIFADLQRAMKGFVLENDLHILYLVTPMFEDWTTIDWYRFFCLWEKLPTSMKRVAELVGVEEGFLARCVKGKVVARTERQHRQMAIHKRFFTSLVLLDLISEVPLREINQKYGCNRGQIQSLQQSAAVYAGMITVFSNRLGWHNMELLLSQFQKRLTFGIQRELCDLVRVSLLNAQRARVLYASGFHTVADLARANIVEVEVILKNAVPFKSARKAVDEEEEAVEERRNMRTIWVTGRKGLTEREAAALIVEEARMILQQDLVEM
IC50 [1],"IC50 (DLD1 BRCA2 (−/−) cells; Homo sapiens, DLD-1, 168 h)",IC50 (DLD1 BRCA2 (−/−) cells),Molecule,"IC50 (DLD1 WT cells; Homo sapiens, DLD-1, 168 h)",IC50 (DLD1 WT cells)
1 to 15 nM,0.001 to 0.1 µM,–,COc1ccc(C(=O)N2Cc3nc(NC(=O)c4cnc(C)cc4-c4cc(Cl)ncc4OC)sc3C2)c(OC)n1,5 to 10 µM,–
1 to 15 nM,0.001 to 0.1 µM,–,COc1cnc(Cl)cc1-c1cc(C)ncc1C(=O)Nc1nc2c(s1)CN(C(=O)c1ccc(F)c(C(F)F)n1)C2,≥ 10 µM,–
1 to 15 nM,0.001 to 0.1 µM,–,COc1cnc(Cl)cc1-c1cc(C)ncc1C(=O)Nc1nc2c(s1)CN(C(=O)c1ccc(C(F)F)nc1Cl)C2,≥ 10 µM,–
1 to 15 nM,0.001 to 0.1 µM,–,COc1cccc(C(=O)N2Cc3nc(NC(=O)c4cnc(C)cc4-c4cc(Cl)ncc4OC)sc3C2)n1,2 to 5 µM,–
1 to 15 nM,0.001 to 0.1 µM,–,COc1ccc(C(=O)N2Cc3nc(NC(=O)c4cnc(C)cc4-c4cc(Cl)ncc4OC)sc3C2)c(Cl)n1,≥ 10 µM,–
1 to 15 nM,0.001 to 0.1 µM,–,COc1cnc(Cl)cc1-c1cc(C)ncc1C(=O)Nc1nc2c(s1)CN(C(=O)c1cnc(OC)c(Cl)c1)C2,5 to 10 µM,–
1 to 15 nM,0.001 to 0.1 µM,–,COc1cnc(Cl)cc1-c1cc(C)ncc1C(=O)Nc1nc2c(s1)CN(C(=O)c1ccnc(C)n1)C2,5 to 10 µM,–
1 to 15 nM,0.001 to 0.1 µM,–,COc1ccc(C(=O)N2Cc3nc(NC(=O)c4cnc(C)cc4-c4cc(Cl)ncc4OC)sc3C2)cn1,≥ 10 µM,–
1 to 15 nM,0.001 to 0.1 µM,–,COc1cc(Cl)c(C(=O)N2Cc3nc(NC(=O)c4cnc(C)cc4-c4cc(Cl)ncc4OC)sc3C2)cn1,≥ 10 µM,–
1 to 15 nM,0.001 to 0.1 µM,–,COc1nccc(C(=O)N2Cc3nc(NC(=O)c4cnc(C)cc4-c4cc(Cl)ncc4OC)sc3C2)n1,≥ 10 µM,–
1 to 15 nM,0.001 to 0.1 µM,–,COc1cnc(Cl)cc1-c1cc(C)ncc1C(=O)Nc1nc2c(s1)CN(C(=O)c1cnc(C(F)F)nc1)C2,≥ 10 µM,–
–,0.001 to 0.1 µM,–,"COc1cnc(Cl)cc1-c1cc(C)ncc1C(=O)Nc1nc2c(s1)CN(C(=O)c1nc(C(F)(F)F)c(C#N)cc1C)C2 [Example 1022, 2′-chloro-N-(5-(5-cyano-3-methyl-6-(trifluoromethyl)picolinoyl)-5,6-dihydro-4H-pyrrolo[3,4-d]thiazol-2-yl)-5′-methoxy-6-methyl-[4,4′-bipyridine]-3-carboxamide]",≥ 10 µM,–
–,0.001 to 0.1 µM,–,"COc1cnc(Cl)c(F)c1-c1cc(C)ncc1C(=O)Nc1nc2c(s1)CN(C(=O)c1ccc(C(F)(F)F)nc1OC)C2 [Example 1023, 2′-chloro-3′-fluoro-5′-methoxy-N-(5-(2-methoxy-6-(trifluoromethyl)nicotinoyl)-5,6-dihydro-4H-pyrrolo[3,4-d]thiazol-2-yl)-6-methyl-[4,4′-bipyridine]-3-carboxamide]",≥ 10 µM,–
–,0.001 to 0.1 µM,–,"COc1nnc(C(F)F)cc1-c1cc(C)ncc1C(=O)Nc1nc2c(s1)CN(C(=O)c1nccc(C(F)(F)F)c1C)C2 [Example 1024, 4-(6-(difluoromethyl)-3-methoxypyridazin-4-yl)-6-methyl-N-(5-(3-methyl-4-(trifluoromethyl)picolinoyl)-5,6-dihydro-4H-pyrrolo[3,4-d]thiazol-2-yl)nicotinamide]",≥ 10 µM,–
–,0.001 to 0.1 µM,–,"COc1nc(C(F)(F)F)ccc1C(=O)N1Cc2nc(NC(=O)c3cnc(C)cc3-c3cc(C(F)F)nnc3OC)sc2C1 [Example 1025, 4-(6-(difluoromethyl)-3-methoxypyridazin-4-yl)-N-(5-(2-methoxy-6-(trifluoromethyl)nicotinoyl)-5,6-dihydro-4H-pyrrolo[3,4-d]thiazol-2-yl)-6-methylnicotinamide]",≥ 10 µM,–
–,0.001 to 0.1 µM,–,"COc1nnc(C(F)F)cc1-c1cc(C)ncc1C(=O)Nc1nc2c(s1)CN(C(=O)c1nccc(C(F)(F)F)c1F)C2 [Example 1026, 4-(6-(difluoromethyl)-3-methoxypyridazin-4-yl)-N-(5-(3-fluoro-4-(trifluoromethyl)picolinoyl)-5,6-dihydro-4H-pyrrolo[3,4-d]thiazol-2-yl)-6-methylnicotinamide]",≥ 10 µM,–
–,0.001 to 0.1 µM,–,"COc1cnc(Cl)cc1-c1cc(C)ncc1C(=O)Nc1nc2c(s1)CN(C(=O)c1nc(C)c(OC(F)F)cc1C)C2 [Example 1027, 2′-chloro-N-(5-(5-(difluoromethoxy)-3,6-dimethylpicolinoyl)-5,6-dihydro-4H-pyrrolo[3,4-d]thiazol-2-yl)-5′-methoxy-6-methyl-[4,4′-bipyridine]-3-carboxamide]",≥ 10 µM,–
–,0.001 to 0.1 µM,–,"COc1cnc(Cl)cc1-c1cc(C)ncc1C(=O)Nc1nc2c(s1)CN(C(=O)c1nc(C)c(OC(F)(F)F)cc1C)C2 [Example 1028, 2′-chloro-N-(5-(3,6-dimethyl-5-(trifluoromethoxy)picolinoyl)-5,6-dihydro-4H-pyrrolo[3,4-d]thiazol-2-yl)-5′-methoxy-6-methyl-[4,4′-bipyridine]-3-carboxamide]",≥ 10 µM,–
–,0.001 to 0.1 µM,–,"COc1cnc(C)c(F)c1-c1cc(C)ncc1C(=O)Nc1nc2c(s1)CN(C(=O)c1ccc(C(F)(F)F)nc1OC)C2 [Example 1029, 3′-fluoro-5′-methoxy-N-(5-(2-methoxy-6-(trifluoromethyl)nicotinoyl)-5,6-dihydro-4H-pyrrolo[3,4-d]thiazol-2-yl)-2′,6-dimethyl-[4,4′-bipyridine]-3-carboxamide]",≥ 10 µM,–
–,0.001 to 0.1 µM,–,"COc1cc(C)c(C(=O)N2Cc3nc(NC(=O)c4cnc(C)cc4-c4cc(Cl)ncc4OC)sc3C2)c(Cl)n1 [Example 1030, 2′-chloro-N-(5-(2-chloro-6-methoxy-4-methylnicotinoyl)-5,6-dihydro-4H-pyrrolo[3,4-d]thiazol-2-yl)-5′-methoxy-6-methyl-[4,4′-bipyridine]-3-carboxamide]",≥ 10 µM,–
–,0.001 to 0.1 µM,–,"COc1nc(C(F)(F)F)ccc1C(=O)N1Cc2nc(NC(=O)c3cnc(C)cc3-c3cc(C(F)F)cnc3OC)sc2C1 [Example 1032, 5-(difluoromethyl)-2-methoxy-N-(5-(2-methoxy-6-(trifluoromethyl)nicotinoyl)-5,6-dihydro-4H-pyrrolo[3,4-d]thiazol-2-yl)-6′-methyl-[3,4′-bipyridine]-3′-carboxamide]",≥ 10 µM,–
–,0.001 to 0.1 µM,–,"COc1cnc(Cl)cc1-c1cc(C)ncc1C(=O)Nc1nc2c(s1)CN(C(=O)c1ccc(C(F)(F)F)nc1OC)C2C (centres unmarked) [Example 1033, 2′-chloro-5′-methoxy-N-(5-(2-methoxy-6-(trifluoromethyl)nicotinoyl)-4-methyl-5,6-dihydro-4H-pyrrolo[3,4-d]thiazol-2-yl)-6-methyl-[4,4′-bipyridine]-3-carboxamide]",≥ 10 µM,–
–,0.001 to 0.1 µM,–,"COc1ncc(Cl)cc1-c1cc(C)ncc1C(=O)Nc1nc2c(s1)CN(C(=O)c1nccc(C(F)(F)F)c1OC)C2 [Example 1034, 5-chloro-2-methoxy-N-(5-(3-methoxy-4-(trifluoromethyl)picolinoyl)-5,6-dihydro-4H-pyrrolo[3,4-d]thiazol-2-yl)-6′-methyl-[3,4′-bipyridine]-3′-carboxamide]",≥ 10 µM,–
–,0.001 to 0.1 µM,–,"COc1ncc(Cl)cc1-c1cc(C)ncc1C(=O)Nc1nc2c(s1)CN(C(=O)c1ccc(C(F)(F)F)c(OC)n1)C2 [Example 1035, 5-chloro-2-methoxy-N-(5-(6-methoxy-5-(trifluoromethyl)picolinoyl)-5,6-dihydro-4H-pyrrolo[3,4-d]thiazol-2-yl)-6′-methyl-[3,4′-bipyridine]-3′-carboxamide]",≥ 10 µM,–
–,0.1 to 0.25 µM,–,"COc1ccc(C(=O)N2Cc3nc(NC(=O)c4cnc(C)cc4-c4cc(Cl)ncc4OC)sc3C2)c(F)n1 [Example 1038, 2′-chloro-N-(5-(2-fluoro-6-methoxynicotinoyl)-5,6-dihydro-4H-pyrrolo[3,4-d]thiazol-2-yl)-5′-methoxy-6-methyl-[4,4′-bipyridine]-3-carboxamide]",≥ 10 µM,–
–,0.001 to 0.1 µM,–,"COc1cnc(Cl)cc1-c1cc(C)ncc1C(=O)Nc1nc2c(s1)CN(C(=O)c1ccc(OC(F)(F)F)nc1OC)C2 [Example 1039, 2′-chloro-5′-methoxy-N-(5-(2-methoxy-6-(trifluoromethoxy)nicotinoyl)-5,6-dihydro-4H-pyrrolo[3,4-d]thiazol-2-yl)-6-methyl-[4,4′-bipyridine]-3-carboxamide]",≥ 10 µM,–
–,0.001 to 0.1 µM,–,"COc1ncc(Cl)cc1-c1cc(C)ncc1C(=O)Nc1nc2c(s1)CN(C(=O)c1nc(OC)c(C(F)(F)F)cc1C)C2 [Example 1044, 5-chloro-2-methoxy-N-(5-(6-methoxy-3-methyl-5-(trifluoromethyl)picolinoyl)-5,6-dihydro-4H-pyrrolo[3,4-d]thiazol-2-yl)-6′-methyl-[3,4′-bipyridine]-3′-carboxamide]",≥ 10 µM,–
–,0.001 to 0.1 µM,–,"COc1nc(C(F)(F)F)ccc1C(=O)N1Cc2nc(NC(=O)c3cnc(C)cc3-c3cc(C#N)cnc3OC)sc2C1 [Example 1048, 5-cyano-2-methoxy-N-(5-(2-methoxy-6-(trifluoromethyl)nicotinoyl)-5,6-dihydro-4H-pyrrolo[3,4-d]thiazol-2-yl)-6′-methyl-[3,4′-bipyridine]-3′-carboxamide]",≥ 10 µM,–
–,–,0.001 to 0.1 µM,"N-(5-(2-Chloro-3-(difluoromethyl)benzoyl)-5,6-dihydro-4H-pyrrolo[3,4-d]thiazol-2-yl)-4-(5-cyano-2-methoxyphenyl)-6-methylnicotinamide [Example 443]",–,≥ 10 µM
–,–,0.001 to 0.1 µM,"N-(5-(2-Methoxy-6-(trifluoromethyl)nicotinoyl)-5,6-dihydro-4H-pyrrolo[3,4-d]thiazol-2-yl)-4-(6-methoxyimidazo[1,5-a]pyridin-7-yl)-6-methylnicotinamide [Example 568]",–,≥ 10 µM

# — patent US20250230171A1 (MOMA Therapeutics, Inc., priority 2023, published 2025)
